Results reported in PubChem BioAssay AID602287 (National Center for Advancing Translational Sciences (NCATS), 2012).
In brackets after ≈: the same amount, converted by molar mass. Inconclusive results are not listed.

system: PBS pH 7.4 solubility, LC-UV/MS, 1 h shake; assay: qHTS Assay for Agonists of the Relaxin Receptor RXFP1: PBS Solubility; conditions: hits give high values
Source text: The relaxin hormone is involved in the variety of biological functions in normal tissues and diseases. The role of relaxin is well-established in female reproduction and parturition, mammary gland and endometrial development, maintenance of myometrial quiescence during pregnancy. Relaxin signaling through its G protein-coupled receptor (GPCR) RXFP1 results in ECM remodeling through regulation of collagen deposition, cell invasiveness, proliferation and overall tissue homeostasis. […] Recombinant human relaxin (rhRlx) is currently being tested in clinical trials as a protective agent in congestive heart failure, in treating severe preeclampsia, and as an anti-fibrotic agent in systemic sclerosis. The probe and analogs were tested to assess their PBS solubility in this assay. NIH Chemical Genomics Center [NCGC] NIH Molecular Libraries Probe Production Centers Network [MLPCN] MLPCN Grant: R03 MH085705 Assay Submitter (PI): Alexander Agoulnik
1. 8ul of reference and test compound stock solution were added to 392ul 100mM phosphate buffer (pH 7.4) 2. Sample tubes were shaken for 1 hr (1000 rpm) at room temperature 3. Samples were centrifuged (10 min at 12000 rpm) to precipitate un-dissolved particles 4. Supernatants were transferred to new tubes 5. Concentration of the supernatant was determined by LC-UV or LC-MS/MS

How did the solubility turn out when `CCOc1ccccc1C(=O)Nc1ccccc1C(=O)Nc1cccc(S(=O)(=O)C(F)(F)F)c1` was run?
Its solubility is 1.1 µM (≈ 0.542 µg/mL).

With `CCOc1ccccc1C(=O)Nc1ccccc1C(=O)Nc1cccc(C(F)(F)F)c1` as the molecule, how does the solubility read?
Its solubility is 1.7 µM (≈ 0.728 µg/mL).

For `CC(C)Oc1ccccc1C(=O)Nc1ccccc1C(=O)Nc1cccc(S(=O)(=O)C(F)(F)F)c1`, which solubility is on record?
Its solubility is 7 µM (≈ 3.55 µg/mL).

`COc1ccccc1C(=O)Nc1ccccc1C(=O)Nc1cccc(SC(F)(F)F)c1` was tested. Which solubility did it give?
Its solubility is 2.9 µM (≈ 1.29 µg/mL).

With `CCCCOc1ccccc1C(=O)Nc1ccccc1C(=O)Nc1cccc(S(=O)(=O)C(F)(F)F)c1` as the molecule, how does the solubility read?
Its solubility is 5.3 µM (≈ 2.76 µg/mL).
